Key:
Format in all cases: in vivo
Echinochloa crus-galli [1] = assay: Pre-emergence herbicidal action, ECHCG; settings: Echinochloa crus-galli, 504 h, comparative experiment, 80 g of a.i./ha, read-out: Herbicidal action against ECHCG
Procedure, shortened: (§1)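 Greenhouse pre-emergence test: formulated compound (WP or EC) applied in water to the soil covering sown seeds, 600–800 l/ha, 0.2% wetting agent. Scored visually in percent at 3 weeks versus untreated plants.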

Matricaria inodora = assay: Post-emergence herbicidal action, MATIN; set-up: key: % herbicidal action vs untreated; 100 = plants died, 0 = like control; settings: comparative experiment, post-emergence, 20 g of a.i./ha
Procedure, shortened: (§2)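 Percent herbicidal effect was rated visually about 3 weeks after treatment, relative to untreated plants (0% = like control, 100% = dead). Compounds, formulated as WP or EC, went on as aqueous spray (600–800 l/ha, 0.2% wetting agent) to one-leaf-stage plants 2–3 weeks post-sowing in sandy loam.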

Veronica persica = assay: Post-emergence herbicidal action, VERPE; set-up: key: % herbicidal action vs untreated; 100 = plants died, 0 = like control; settings: comparative experiment, post-emergence, 20 g of a.i./ha
Procedure, shortened: as §2

Abutilon theophrasti [2] = assay: Post-emergence herbicidal action, ABUTH; set-up: key: % herbicidal action vs untreated; 100 = plants died, 0 = like control; settings: comparative experiment, post-emergence, 20 g of a.i./ha
Procedure, shortened: as §2

Setaria viridis [3] = assay: Pre-emergence herbicidal action, SETVI; set-up: key to Herbicidal action against SETVI: % activity: 100 = plants have died, 0 = like control plants; settings: comparative experiment, 80 g of a.i./ha
Procedure, shortened: as §1

Abutilon theophrasti [4] = assay: Pre-emergence herbicidal action, ABUTH; set-up: key to Herbicidal action against ABUTH: % activity: 100 = plants have died, 0 = like control plants; settings: comparative experiment, 80 g of a.i./ha
Procedure, shortened: as §1

Setaria viridis [5] = assay: Post-emergence herbicidal action, SETVI; set-up: key: % herbicidal action vs untreated; 100 = plants died, 0 = like control; settings: comparative experiment, post-emergence, 20 g of a.i./ha
Procedure, shortened: as §2

Echinochloa crus-galli [6] = assay: Post-emergence herbicidal action, ECHCG; set-up: key: % herbicidal action vs untreated; 100 = plants died, 0 = like control; settings: comparative experiment, post-emergence, 20 g of a.i./ha
Procedure, shortened: as §2

Alopecurus myosuroides = assay: Pre-emergence herbicidal action, ALOMY; set-up: key: % activity: 100 = plants have died, 0 = like control plants; settings: comparative experiment, 80 g of a.i./ha
Source text: (§3) 1. Pre-Emergence Herbicidal Action Against Harmful Plants Seeds of monocotyledonous and dicotyledonous weed plants and crop plants are laid out in sandy loam soil in wood-fiber pots and covered with soil. The compounds of the invention, formulated in the form of wettable powders (WP) or as emulsion concentrates (EC), are then applied to the surface of the covering soil in the form of an aqueous suspension or emulsion at a water application rate equating to 600 to 800 l/ha, with addition of 0.2% wetting agent. After the treatment, the pots are placed in a greenhouse and kept under good growth conditions for the trial plants. The damage to the test plants is scored visually after a test period of 3 weeks by comparison with untreated controls (herbicidal activity in percent (%): 100% activity=the plants have died, 0% activity=like control plants). […] The tables below illustrate, in an exemplary manner, the […] herbicidal action of the compounds according to the invention, the herbicidal activity being stated in percent. [table] In the experiments that follow, herbicidal action of numerous inventive compounds and the known compounds that are structurally closest from D1 (WO 2012/028579 A1) and D2 (WO 2018/202535 A1) were compared under the above-specified conditions by the pre-emergence and post-emergence method. The example numbers given in the tables relate to the compounds disclosed in the respective documents. In addition to the compounds disclosed in D1 and D2, the following compounds V-1 to V-14 that are encompassed by D1 or D2 but are not compounds specified therein were used in the comparative experiments: • V-1: 2-(methylsulfanyl)-3-(methylsulfinyl)-N-(1-methyl-1H-tetrazol-5-yl)-4-(trifluoromethyl)benzamide • V-2: 2-(methylsulfanyl)-3-(methylsulfonyl)-N-(1-methyl-1H-tetrazol-5-yl)-4-(trifluoromethyl)benzamide • V-3: 2,3-bis(ethylsulfanyl)-N-(1-methyl-1H-tetrazol-5-yl)-4-(trifluoromethyl)benzamide • V-4: 2-chloro-3-(ethylsulfanyl)-N-(1-methyl-1H-tetrazol-5-yl)-4-(trifluoromethyl)benzamide • V-5: 2-chloro-4-iodo-3-(methylsulfanyl)-N-(1-methyl-1H-tetrazol-5-yl)benzamide • V-6: 2-chloro-4-iodo-3-(methylsulfinyl)-N-(1-methyl-1H-tetrazol-5-yl)benzamide • V-7: 2-chloro-4-iodo-3-(methylsulfonyl)-N-(1-methyl-1H-tetrazol-5-yl)benzamide • V-8: 2-bromo-3-(methylsulfanyl)-N-(1-methyl-1H-tetrazol-5-yl)-4-(trifluoromethyl)benzamide • V-9: 2-bromo-3-(methylsulfinyl)-N-(1-methyl-1H-tetrazol-5-yl)-4-(trifluoromethyl)benzamide • V-10: 2-bromo-3-(methylsulfonyl)-N-(1-methyl-1H-tetrazol-5-yl)-4-(trifluoromethyl)benzamide • V-11: 2-bromo-3-(ethylsulfanyl)-N-(1-methyl-1H-tetrazol-5-yl)-4-(trifluoromethyl)benzamide • V-12: 2-bromo-3-(ethylsulfinyl)-N-(1-methyl-1H-tetrazol-5-yl)-4-(trifluoromethyl)benzamide • V-13: 2-bromo-3-(ethylsulfonyl)-N-(1-methyl-1-1H-tetrazol-5-yl)-4-(trifluoromethyl)benzamide • V-14: 2-cyclopropyl-3-(ethylsulfanyl)-N-(1-methyl-1H-tetrazol-5-yl)-4-(trifluoromethyl)benzamide Herbicidal Pre-Emergence Action: […]

Amaranthus retroflexus = assay: Post-emergence herbicidal action, AMARE; set-up: key: % herbicidal action vs untreated; 100 = plants died, 0 = like control; settings: comparative experiment, post-emergence, 20 g of a.i./ha
Procedure, shortened: as §2

Viola tricolor [7] = assay: Pre-emergence herbicidal action, VIOTR; set-up: key to Herbicidal action against VIOTR: % activity: 100 = plants have died, 0 = like control plants; settings: comparative experiment, 80 g of a.i./ha
Procedure, shortened: as §1

Stellaria media = assay: Pre-emergence herbicidal action, STEME; set-up: key to Herbicidal action against STEME: % activity: 100 = plants have died, 0 = like control plants; settings: comparative experiment, 80 g of a.i./ha
Procedure, shortened: as §1

Cyperus esculentus = assay: Pre-emergence herbicidal action, CYPES; set-up: key: % activity: 100 = plants have died, 0 = like control plants; settings: comparative experiment, 80 g of a.i./ha
Source text: as §3

Viola tricolor [8] = assay: Post-emergence herbicidal action, VIOTR; set-up: key: % herbicidal action vs untreated; 100 = plants died, 0 = like control; settings: comparative experiment, post-emergence, 20 g of a.i./ha
Procedure, shortened: as §2

CC[S+]([O-])c1c(C(F)(F)F)ccc(C(=O)Nc2nnnn2C)c1Br (centres unmarked) [Example V-12, 2-bromo-3-(ethylsulfinyl)-N-(1-methyl-1H-tetrazol-5-yl)-4-(trifluoromethyl)benzamide, reference compound]
pest or weed control at 80 g/ha (Echinochloa crus-galli [1]): 0%
Herbicidal action against MATIN (Matricaria inodora): 0
Herbicidal action against VERPE (Veronica persica): 0
Herbicidal action against ABUTH (Abutilon theophrasti [2]): 0
Herbicidal action against SETVI (Setaria viridis [3]): 0
Herbicidal action against ABUTH (Abutilon theophrasti [4]): 0
Herbicidal action against SETVI (Setaria viridis [5]): 20
Herbicidal action against ECHCG (Echinochloa crus-galli [6]): 0
Herbicidal action against ALOMY (Alopecurus myosuroides): 0
Herbicidal action against AMARE (Amaranthus retroflexus): 10
Herbicidal action against VIOTR (Viola tricolor [7]): 0
Herbicidal action against STEME (Stellaria media): 0
Herbicidal action against CYPES (Cyperus esculentus): 0
Herbicidal action against VIOTR (Viola tricolor [8]): 0
